{"source": "patent US20020111314A1", "about": "“Novel stimulation of gene expression and protein synthesis of heat shock protein 72/73 (Hsp 70)” (The Trustees of Columbia University, priority 1995, published 2002)", "key": {"[1]": {"test_system": "Hsp70", "test": "Hsp70 induction in human microvascular endothelial cell line", "format": "cell-based", "conditions": "4 hours ALLN 40 μg/ml, 30 min labeling with [3H]-leucine"}, "[2]": {"test_system": "Hsp70", "test": "Hsp70 induction in Chinese hamster ovary (CHO) cells", "format": "cell-based", "conditions": "data not shown"}, "[3]": {"test_system": "Hsp90, Hsp60, Hsp25, Hsp27, Hsp86, Hsp104, Bip and albumin", "test": "Biosynthesis of other Hsp family members and related proteins in HepG2 cells (SDS-PAGE, immunoprecipitation)", "format": "cell-based, human", "protocol": "FIGS. 2A-2B: Effects of ALLN on Hsp25, Hsp60, Hsp90 and Bip biosynthesis. HepG2 cells were pre-treated and radiolabeled with/without ALLN for 4 hours as described in FIG. 1. Cell lysates were denatured and aliquoted for immunoprecipitation with anti-Hsp25, anti-Hsp60, anti-Hsp90, or anti-Bip antibodies respectively (1 μg/ml). Because the anti-Hsp90 antibody is of rat source, rabbit anti-rat IgG antibody was added after the first incubation and the incubation was extended for another 1 hour at 4° C. before collection with protein A-Sepharose. Immunoprecipitates were aliquoted for scintillation counting and plotted. Each value is presented as means±SD from three individual experiments.\nFIGS. 7A-7B: Effects of ALLN on the biosynthesis of other members of Hsp family and related proteins. HepG2cells were pre-treated and radiolabeled with or without ALLN for 4 hours as described in FIG. 1. […]\nHepG2 cells were preincubated for 4 hours in serum-free MEM and then radiolabeled with ^3H-Leucine (150 μCi/ml) in a serum-free, leucine-free medium. […] Cell lysates containing equal amounts of trichloroacetic acid (TCA)-insoluble radioactivity were used for immunoprecipitations by incubating with individual monoclonal antibody (1 μg/ml) for 2.5 hours at 4° C. […]"}}, "note": "“Also recorded” adds a separate entry of the source. Square brackets hold non-standard residues; d marks the D form. Peptide text beside a SMILES is read from it. Nle = CCCC[C@H](N)C(=O)O", "data": [{"smiles": "CCCC[C@@H](C=O)NC(=O)[C@H](CC(C)C)NC(=O)[C@H](CC(C)C)NC(C)=O", "note": "[ALLN, N-acetyl-leucyl-leucyl-norleucinal] (Ac-Leu-Leu-[Nle]-aldehyde)", "values": [{"measurement": "increment of Hsp70 level", "setting": "[1]", "value": 35, "unit": "fold"}, {"measurement": "cellular Hsp70 levels", "setting": "[2]", "value": "increasing cellular Hsp70 levels"}, {"measurement": "effect on Hsp90, Hsp60, Hsp25, Hsp27, Hsp86, Hsp104, Bip or albumin levels", "setting": "[3]; ALLN 4 hours", "value": "no effects; also recorded: only Hsp70 was induced"}, {"measurement": "level of a protein of about 80-90 kDa (whole-cell protein pattern, FIG. 2A)", "setting": "[3]; ALLN-treated vs control", "value": "also increased but not as significantly as Hsp70"}]}]}
